What was measured:
CTX-M-9 = CTX-M-9 (Escherichia coli, UniProt Q9L5C8); assay: biochemical; conditions: for LipE (defined as log Ki-c log P): from Ki against CTX-M-9 and c log P
Description: To investigate the effectiveness of the new analogs, we employed CTX-M-9 and a UV-absorbance based biochemical assay to obtain binding affinities. […] The parameter LipE (defined as log Ki-c log P)^24 provides a measure of binding affinity improvement achieved while retaining favorable physiochemical properties.
The compounds were synthesized as previously described or purchased from the company Chembridge, and assayed without further purification. The highest concentrations at which the compounds were tested were up to 1-3 mM (depending on their solubility) in IC50 experiment. The reaction was initiated by adding protein to the reaction buffer last.

[1] = system: O=C(Cc1cccs1)N[C@@H]1C(=O)N2C(C(=O)O)=C(/C=C/c3ccc([N+](=O)[O-])cc3[N+](=O)[O-])CS[C@H]12; assay: purified protein, by the assay type; conditions: other: substrate, 100 mM Tris-HCl pH 7.0, 0.01% Triton X-100

Row | Compound | LipE (defined as log Ki-c log P) (CTX-M-9) | Ki (CTX-M-9) [µM] | other results
1 | O=C(Nc1cccc(-c2nnn[nH]2)c1)c1cccc(F)c1 [Compound 1] | 1.37 | – | –
2 | CC(=O)c1cccc(C(=O)Nc2cccc(-c3nnn[nH]3)c2)c1 [Compound 7, 3-Acetyl-N-[3-(1H-tetrazol-5-yl)-phenyl]-benzamide] | 2.51 | – | –
3 | N#Cc1cccc(C(=O)Nc2cccc(-c3nnn[nH]3)c2)c1 [Compound 14, 3-Cyano-N-[3-(1H-tetrazol-5-yl)-phenyl]-benzamide] | – | 7.2 | –
4 | O=C(Nc1cccc(-c2nnn[nH]2)c1)c1cc(C(F)(F)F)cc2nc[nH]c12 [Compound 19, 6-Trifluoromethyl-3H-benzoimidazole-4-carboxylic acid [3-(1H-tetrazol-5-yl)-phenyl]-amide] | 3.86 | 0.089 | ligand efficiency (L.E.) (CTX-M-9; from Ki against CTX-M-9): 0.36
5 | O=C(Nc1cccc(-c2nnn[nH]2)c1)c1cc(F)cc2nc[nH]c12 [Compound 23, 6-Fluoro-3H-benzoimidazole-4-carboxylic acid [3-(1H-tetrazol-5-yl)-phenyl]-amide] | – | – | potency (Ki) relative to comparator compound, in words (CTX-M-9; CTX-M-9): only equipotent to des-fluoro comparator 16
6 | CTX-M-9 (Escherichia coli) | – | – | Km [1]: 24 µM

Source: US10604493B2, “Compositions, methods of use, and methods of treatment” (priority 2012, dated 2020)
